According to ChEMBL document CHEMBL1132364, “Structure-activity relationship of N-(phenylalkyl)cinnamides as novel NR2B subtype-selective NMDA receptor antagonists” (J Med Chem, 1999):

Legend:
[1] = biological target: Glutamate NMDA receptor; Grin1/Grin2c (Rattus norvegicus, UniProt P35439+Q00961); assay: Antagonistic activity against N-methyl-D-aspartate glutamate receptor 1/2C.; assay type: functional
[2] = biological target: Glutamate NMDA receptor; Grin1/Grin2a (Rattus norvegicus, UniProt P35439+Q00959); assay: Antagonistic activity against N-methyl-D-aspartate glutamate receptor 1/2A.; assay type: functional
[3] = biological target: Glutamate NMDA receptor; Grin1/Grin2b (Rattus norvegicus, UniProt P35439+Q00960); assay: Antagonistic activity against N-methyl-D-aspartate glutamate receptor 1/2B.; assay type: functional
[4] = biological target: Epidermal growth factor receptor (Homo sapiens, UniProt P00533); assay: Inhibition of Epidermal growth factor receptor autophosphorylation
[5] = biological target: T1, Alpha-1A adrenergic receptor (Homo sapiens, UniProt P35348); assay: Inhibition of Alpha-1 adrenergic receptor
T1 sequence (P35348 whole entry): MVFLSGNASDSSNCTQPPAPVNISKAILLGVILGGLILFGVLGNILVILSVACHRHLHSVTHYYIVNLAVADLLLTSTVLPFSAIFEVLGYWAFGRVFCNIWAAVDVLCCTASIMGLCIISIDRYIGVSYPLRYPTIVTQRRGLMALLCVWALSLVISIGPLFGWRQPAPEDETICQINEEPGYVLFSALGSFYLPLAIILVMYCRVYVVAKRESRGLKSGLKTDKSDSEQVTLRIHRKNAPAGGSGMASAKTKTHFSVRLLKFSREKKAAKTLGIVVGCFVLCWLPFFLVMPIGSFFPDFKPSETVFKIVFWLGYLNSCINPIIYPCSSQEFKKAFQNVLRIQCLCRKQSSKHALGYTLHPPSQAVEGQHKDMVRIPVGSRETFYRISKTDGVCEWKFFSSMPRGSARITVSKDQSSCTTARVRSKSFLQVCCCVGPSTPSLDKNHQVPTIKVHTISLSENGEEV

Chain of Glutamate NMDA receptor; Grin1/Grin2c (Q00961 whole entry, other chains not shown): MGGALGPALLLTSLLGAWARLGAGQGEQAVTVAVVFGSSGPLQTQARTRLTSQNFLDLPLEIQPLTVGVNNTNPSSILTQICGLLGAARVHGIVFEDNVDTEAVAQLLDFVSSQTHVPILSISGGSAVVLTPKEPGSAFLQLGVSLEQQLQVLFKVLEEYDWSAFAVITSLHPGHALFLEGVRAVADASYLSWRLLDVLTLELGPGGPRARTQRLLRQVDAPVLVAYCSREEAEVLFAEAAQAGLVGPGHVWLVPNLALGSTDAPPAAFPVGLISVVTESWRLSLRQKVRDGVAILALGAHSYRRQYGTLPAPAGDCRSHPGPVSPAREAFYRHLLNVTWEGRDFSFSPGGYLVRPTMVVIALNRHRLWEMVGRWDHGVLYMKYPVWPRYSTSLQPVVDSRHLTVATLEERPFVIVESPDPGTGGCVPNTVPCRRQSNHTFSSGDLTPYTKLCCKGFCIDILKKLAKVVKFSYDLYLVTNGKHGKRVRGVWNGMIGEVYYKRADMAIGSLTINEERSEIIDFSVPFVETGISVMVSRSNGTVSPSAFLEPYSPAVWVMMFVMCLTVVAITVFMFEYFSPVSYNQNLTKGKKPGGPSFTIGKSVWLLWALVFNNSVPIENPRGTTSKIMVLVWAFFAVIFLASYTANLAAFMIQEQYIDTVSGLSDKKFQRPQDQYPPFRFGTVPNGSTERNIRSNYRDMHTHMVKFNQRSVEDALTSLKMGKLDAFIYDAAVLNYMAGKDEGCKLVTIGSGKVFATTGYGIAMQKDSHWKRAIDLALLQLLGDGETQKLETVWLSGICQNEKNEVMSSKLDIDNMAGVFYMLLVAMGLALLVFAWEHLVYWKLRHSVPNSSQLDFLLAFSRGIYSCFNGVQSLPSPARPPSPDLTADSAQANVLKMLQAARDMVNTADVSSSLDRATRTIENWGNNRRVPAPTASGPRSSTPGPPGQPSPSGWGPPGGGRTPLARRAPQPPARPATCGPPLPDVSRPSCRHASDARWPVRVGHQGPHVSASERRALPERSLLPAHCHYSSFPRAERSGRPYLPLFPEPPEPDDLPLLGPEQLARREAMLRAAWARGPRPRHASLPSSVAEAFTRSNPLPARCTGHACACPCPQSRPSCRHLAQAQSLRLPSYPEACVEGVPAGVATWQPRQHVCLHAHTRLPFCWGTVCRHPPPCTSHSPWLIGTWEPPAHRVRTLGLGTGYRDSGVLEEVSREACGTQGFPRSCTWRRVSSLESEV
Chain of Glutamate NMDA receptor; Grin1/Grin2b (Q00960 whole entry, other chains not shown): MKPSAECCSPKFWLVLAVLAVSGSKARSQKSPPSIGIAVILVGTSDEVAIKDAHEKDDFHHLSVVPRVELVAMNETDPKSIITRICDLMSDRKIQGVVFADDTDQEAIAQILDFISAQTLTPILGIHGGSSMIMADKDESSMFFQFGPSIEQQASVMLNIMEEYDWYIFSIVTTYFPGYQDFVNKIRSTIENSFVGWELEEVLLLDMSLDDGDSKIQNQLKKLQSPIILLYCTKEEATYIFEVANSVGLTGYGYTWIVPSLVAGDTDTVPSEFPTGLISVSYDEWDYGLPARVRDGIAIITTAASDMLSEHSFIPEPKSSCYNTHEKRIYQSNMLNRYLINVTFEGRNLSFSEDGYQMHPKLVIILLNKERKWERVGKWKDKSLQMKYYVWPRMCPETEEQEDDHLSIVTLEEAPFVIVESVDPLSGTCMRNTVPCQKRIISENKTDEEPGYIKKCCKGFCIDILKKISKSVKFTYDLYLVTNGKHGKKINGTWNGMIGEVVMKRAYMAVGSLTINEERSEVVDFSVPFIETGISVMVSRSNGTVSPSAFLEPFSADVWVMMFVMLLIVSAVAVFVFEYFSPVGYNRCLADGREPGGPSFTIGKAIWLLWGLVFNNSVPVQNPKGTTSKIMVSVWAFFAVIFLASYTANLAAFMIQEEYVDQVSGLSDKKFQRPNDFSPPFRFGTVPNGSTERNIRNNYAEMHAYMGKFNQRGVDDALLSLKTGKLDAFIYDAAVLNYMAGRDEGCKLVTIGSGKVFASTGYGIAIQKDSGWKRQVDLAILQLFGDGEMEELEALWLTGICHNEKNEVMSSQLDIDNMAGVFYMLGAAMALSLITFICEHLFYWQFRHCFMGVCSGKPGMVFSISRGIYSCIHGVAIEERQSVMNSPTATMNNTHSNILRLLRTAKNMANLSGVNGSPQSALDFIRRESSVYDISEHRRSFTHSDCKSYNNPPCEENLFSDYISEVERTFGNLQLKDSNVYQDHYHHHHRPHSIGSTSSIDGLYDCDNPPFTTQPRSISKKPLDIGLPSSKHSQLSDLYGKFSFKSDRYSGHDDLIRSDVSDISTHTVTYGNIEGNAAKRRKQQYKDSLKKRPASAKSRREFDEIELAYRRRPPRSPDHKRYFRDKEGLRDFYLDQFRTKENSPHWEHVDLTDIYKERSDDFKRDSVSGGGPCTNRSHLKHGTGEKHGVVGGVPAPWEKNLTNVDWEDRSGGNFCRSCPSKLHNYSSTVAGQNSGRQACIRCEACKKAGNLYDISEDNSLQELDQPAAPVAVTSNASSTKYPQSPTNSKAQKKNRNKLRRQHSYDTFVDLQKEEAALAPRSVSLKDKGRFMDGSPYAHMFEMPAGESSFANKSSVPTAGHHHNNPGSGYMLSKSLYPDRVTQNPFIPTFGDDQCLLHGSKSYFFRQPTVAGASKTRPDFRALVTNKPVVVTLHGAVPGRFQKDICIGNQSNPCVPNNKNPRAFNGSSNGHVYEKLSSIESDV
Chain of Glutamate NMDA receptor; Grin1/Grin2a (Q00959 whole entry, other chains not shown): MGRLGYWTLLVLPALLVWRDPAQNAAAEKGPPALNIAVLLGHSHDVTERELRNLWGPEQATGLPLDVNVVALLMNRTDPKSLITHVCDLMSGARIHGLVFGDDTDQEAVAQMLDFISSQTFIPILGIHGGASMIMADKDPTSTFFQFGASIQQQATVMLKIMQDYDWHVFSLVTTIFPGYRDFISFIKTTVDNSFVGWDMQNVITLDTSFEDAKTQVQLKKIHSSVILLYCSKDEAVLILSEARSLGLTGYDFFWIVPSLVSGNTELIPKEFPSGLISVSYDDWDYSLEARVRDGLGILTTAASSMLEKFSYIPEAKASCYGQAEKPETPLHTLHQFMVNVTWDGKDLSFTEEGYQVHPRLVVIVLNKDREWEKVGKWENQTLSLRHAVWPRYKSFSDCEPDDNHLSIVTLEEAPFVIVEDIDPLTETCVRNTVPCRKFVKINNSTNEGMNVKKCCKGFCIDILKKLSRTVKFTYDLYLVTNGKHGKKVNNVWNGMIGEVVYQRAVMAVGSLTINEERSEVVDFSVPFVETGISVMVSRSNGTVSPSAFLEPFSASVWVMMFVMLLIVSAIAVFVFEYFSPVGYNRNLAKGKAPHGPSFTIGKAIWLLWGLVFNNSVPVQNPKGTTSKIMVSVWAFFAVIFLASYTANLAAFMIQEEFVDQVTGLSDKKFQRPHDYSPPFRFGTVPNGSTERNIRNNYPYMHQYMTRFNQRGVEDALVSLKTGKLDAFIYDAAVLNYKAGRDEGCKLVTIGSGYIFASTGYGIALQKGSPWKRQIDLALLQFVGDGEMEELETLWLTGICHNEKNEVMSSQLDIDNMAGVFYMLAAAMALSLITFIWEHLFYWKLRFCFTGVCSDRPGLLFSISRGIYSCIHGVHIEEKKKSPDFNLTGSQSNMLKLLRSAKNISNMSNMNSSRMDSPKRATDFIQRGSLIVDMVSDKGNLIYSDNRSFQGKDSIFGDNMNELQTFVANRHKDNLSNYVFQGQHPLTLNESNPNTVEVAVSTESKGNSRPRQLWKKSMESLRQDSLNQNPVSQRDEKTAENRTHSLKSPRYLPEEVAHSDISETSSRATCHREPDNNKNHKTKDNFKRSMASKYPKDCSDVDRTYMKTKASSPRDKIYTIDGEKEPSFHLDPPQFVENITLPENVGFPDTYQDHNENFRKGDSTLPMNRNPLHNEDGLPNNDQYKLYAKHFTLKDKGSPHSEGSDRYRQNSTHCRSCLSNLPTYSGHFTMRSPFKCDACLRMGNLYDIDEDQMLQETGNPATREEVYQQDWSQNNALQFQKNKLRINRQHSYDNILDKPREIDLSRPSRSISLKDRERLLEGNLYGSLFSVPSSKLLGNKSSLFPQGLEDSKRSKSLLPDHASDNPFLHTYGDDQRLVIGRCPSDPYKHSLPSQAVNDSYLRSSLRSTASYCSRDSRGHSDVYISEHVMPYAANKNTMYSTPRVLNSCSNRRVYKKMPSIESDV

Compound | IC50 [1] | IC50 [2] | IC50 [3] | IC50 [5] | IC50 [4]
O=C(/C=C/c1ccc(O)cc1)NCCc1ccc(O)cc1 [N-P-COUMAROYL TYRAMINE] | > 100 µM | > 100 µM | 21 µM |  | 
N#C/C(=C\c1ccc(O)c(O)c1)C(=O)NCCc1ccccc1 | > 100 µM | > 100 µM | 1.7 µM |  | < 0.625 µM
O=C(/C=C/c1cc(Cl)ccc1Cl)NCCCCc1ccccc1 | > 100 µM | > 100 µM | > 100 µM |  | 
N#C/C(=C\c1cccc(O)c1)C(=O)NCCCCc1ccccc1 | > 100 µM | > 100 µM | > 100 µM |  | 
C[C@H]([C@@H](O)c1ccc(O)cc1)N1CCC(Cc2ccccc2)CC1 [(S,R)-IFENPRODIL] |  |  |  | 0.1 µM | 
N#C/C(=C\c1ccc(Cl)cc1)C(=O)NCCCCc1ccccc1 | > 100 µM | > 100 µM | > 100 µM |  | 
O=C(/C=C/c1ccc(Cl)cc1)NCCc1ccc(Cl)cc1 | > 100 µM | > 100 µM | > 100 µM |  | 
N#C/C(=C\c1ccc(O)c(O)c1)C(=O)NCCCc1ccccc1 | 60 µM | > 100 µM | 0.66 µM |  | 
N#C/C(=C\c1ccc(O)c(O)c1)C(=O)NCCCCc1ccccc1 | > 100 µM | > 100 µM | 0.56 µM | > 100 µM | 
O=C(/C=C/c1ccc(O)cc1)NCCc1ccccc1 | > 100 µM | > 100 µM | 1.5 µM |  | 
O=C(/C=C/c1ccc(O)cc1)NCCc1ccc(Cl)cc1 | > 100 µM | > 100 µM | 0.33 µM |  | 
N#C/C(=C\c1ccc(F)cc1)C(=O)NCCCCc1ccccc1 | > 100 µM | > 100 µM | > 100 µM |  | 
O=C(/C=C/c1ccc(Cl)cc1)NCCc1ccccc1O | > 100 µM | > 100 µM | 8.3 µM |  | 
N#C/C(=C\c1ccc(O)cc1)C(=O)NCCCCc1ccccc1 | > 100 µM | > 100 µM | 0.29 µM |  | 
O=C(/C=C/c1ccccc1)NCCc1ccc(O)cc1 | > 100 µM | > 100 µM | 0.68 µM |  | 
O=C(CCc1ccc(O)cc1)NCCCCc1ccccc1 | > 100 µM | > 100 µM | 0.43 µM |  | 
O=C(/C=C/c1ccc(Cl)cc1)NCCc1ccccc1 | > 100 µM | > 100 µM | > 100 µM |  | 
O=C(/C=C/c1ccc(O)cc1)NCCCCc1ccccc1 | > 100 µM | > 100 µM | 0.077 µM | > 100 µM | 
N#C/C(=C\c1ccccc1)C(=O)NCCCCc1ccccc1 | > 100 µM | > 100 µM | 80 µM |  | 

The next lines start with results.

IC50 [1] | IC50 [2] | IC50 [3] | IC50 [5] | Compound | IC50 [4]
> 100 µM | > 100 µM | 19 µM | > 100 µM | O=C(/C=C/c1ccc(Cl)cc1Cl)NCCc1ccc(O)cc1 | 
 | 52 µM | 0.009 µM |  | C[C@@H](CN1CCC(Cc2ccccc2)CC1)[C@@H](O)c1ccc(O)cc1 | 
> 100 µM | > 100 µM | 7.4 µM |  | O=C(/C=C/c1ccc(Cl)cc1)NCCc1cccc(O)c1 | 
> 100 µM | > 100 µM | 9 µM |  | N#C/C(=C\C(=O)NCCc1ccc(O)cc1)c1ccc(Cl)cc1 | 
> 100 µM | 45 µM | 52 µM |  | O=C(O)COc1ccc(CCNC(=O)/C=C/c2ccc(Cl)cc2)cc1 | 
> 100 µM | > 100 µM | 24 µM |  | O=C(/C=C/c1ccccc1)NCCCCc1ccccc1 | 
> 100 µM | > 100 µM |  |  | C[C@@H]([C@@H](O)c1ccc(O)cc1)N1CCC(O)(c2ccccc2)CC1 [TRAXOPRODIL] | 
> 100 µM | > 100 µM | 46 µM |  | N#C/C(=C\C(=O)NCCc1ccc(O)cc1)c1ccccc1 | 
> 100 µM | > 100 µM | 0.125 µM |  | O=C(/C=C/c1ccc(O)cc1)NCCCCc1ccc(Cl)cc1 | 
> 100 µM | > 100 µM |  | > 100 µM | O=C(/C=C/c1ccc(O)cc1)N1CCC(Cc2ccccc2)CC1 | 
> 100 µM | > 100 µM | 90 µM |  | N#C/C(=C\c1ccc(O)c(O)c1)C(=O)Nc1ccccc1 | 
> 100 µM | > 100 µM | 0.17 µM |  | O=C(/C=C/c1ccc(Cl)cc1)NCCc1ccc(O)cc1 | 
> 100 µM | 49 µM | 32 µM |  | CCN(CC)CCOc1ccc(CCNC(=O)/C=C/c2ccc(Cl)cc2)cc1 | 
> 100 µM | 78 µM | 3.4 µM |  | N#C/C(=C\c1ccc(Cl)cc1)C(=O)NCCc1ccc(O)cc1 | 
100 µM | 19 µM | 45 µM |  | N#C/C(=C\c1ccc(O)c(O)c1)C(=O)NCc1ccccc1 | 
> 100 µM | 23 µM | 1.8 µM |  | O=C(CCCCCc1ccccc1)CCc1ccc(O)cc1 | 
